Assay [1] addresses T1, α1D-AR + β1-syntrophin (Homo sapiens, UniProt P25100).
T1 sequence (P25100 1-572): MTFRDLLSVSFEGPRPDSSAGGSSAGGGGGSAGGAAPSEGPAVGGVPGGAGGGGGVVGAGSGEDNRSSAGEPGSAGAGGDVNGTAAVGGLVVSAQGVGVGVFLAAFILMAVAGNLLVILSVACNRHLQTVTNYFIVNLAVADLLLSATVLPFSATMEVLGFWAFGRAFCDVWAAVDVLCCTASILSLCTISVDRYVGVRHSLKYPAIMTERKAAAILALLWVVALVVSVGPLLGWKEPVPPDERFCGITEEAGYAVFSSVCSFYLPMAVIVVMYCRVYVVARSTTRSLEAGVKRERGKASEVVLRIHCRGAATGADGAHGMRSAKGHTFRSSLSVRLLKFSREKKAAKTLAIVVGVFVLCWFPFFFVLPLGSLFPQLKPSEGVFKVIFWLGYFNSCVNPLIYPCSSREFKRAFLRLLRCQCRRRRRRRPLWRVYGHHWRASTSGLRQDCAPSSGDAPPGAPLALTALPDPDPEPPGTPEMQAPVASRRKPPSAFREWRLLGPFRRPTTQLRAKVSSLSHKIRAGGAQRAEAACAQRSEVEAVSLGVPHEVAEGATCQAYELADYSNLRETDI
T1 sequence (Q99L88 2-537 partner): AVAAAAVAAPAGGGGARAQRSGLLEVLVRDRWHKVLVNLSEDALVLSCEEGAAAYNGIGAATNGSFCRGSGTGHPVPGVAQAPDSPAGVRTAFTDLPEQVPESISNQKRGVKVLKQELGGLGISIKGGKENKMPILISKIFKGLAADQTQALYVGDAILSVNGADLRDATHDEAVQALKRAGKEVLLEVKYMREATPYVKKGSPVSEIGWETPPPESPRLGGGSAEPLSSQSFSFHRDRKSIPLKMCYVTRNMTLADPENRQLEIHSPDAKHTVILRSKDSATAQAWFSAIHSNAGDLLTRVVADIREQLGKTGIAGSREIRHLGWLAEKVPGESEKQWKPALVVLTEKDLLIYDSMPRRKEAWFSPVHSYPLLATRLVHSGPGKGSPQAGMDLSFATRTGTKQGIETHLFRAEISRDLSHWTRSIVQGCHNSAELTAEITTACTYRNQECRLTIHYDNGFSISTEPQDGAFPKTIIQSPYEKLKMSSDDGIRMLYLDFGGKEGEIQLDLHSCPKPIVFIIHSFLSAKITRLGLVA
In words: [3H]-PI hydrolysis, HEK293 cells, agonist. It is filed as cell-based.

Assay [2] addresses T2, α1D-AR + α-syntrophin (Homo sapiens, UniProt P25100).
T2 sequence (P25100 1-572): T1 sequence (P25100 1-572)
T2 sequence (Q61234 1-503 partner): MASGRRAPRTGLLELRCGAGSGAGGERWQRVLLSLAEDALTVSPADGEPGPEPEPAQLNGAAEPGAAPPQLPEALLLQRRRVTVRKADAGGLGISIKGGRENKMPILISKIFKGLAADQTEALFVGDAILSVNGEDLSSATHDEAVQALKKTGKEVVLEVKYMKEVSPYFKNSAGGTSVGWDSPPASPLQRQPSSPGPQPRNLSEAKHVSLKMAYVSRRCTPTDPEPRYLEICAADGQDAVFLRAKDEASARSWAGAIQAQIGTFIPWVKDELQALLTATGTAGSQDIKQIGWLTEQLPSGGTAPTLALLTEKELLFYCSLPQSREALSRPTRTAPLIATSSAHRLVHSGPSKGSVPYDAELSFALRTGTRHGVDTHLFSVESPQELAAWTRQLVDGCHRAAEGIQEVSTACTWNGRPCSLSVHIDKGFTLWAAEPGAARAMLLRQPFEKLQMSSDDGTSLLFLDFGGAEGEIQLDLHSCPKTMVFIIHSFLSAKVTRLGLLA
In words: [3H]-PI hydrolysis, HEK293 cells, agonist. It is filed as cell-based.

For assay [3], the target named is T3, α1D-AR + β2-syntrophin (Homo sapiens, UniProt P25100).
T3 sequence (P25100 1-572): T1 sequence (P25100 1-572)
T3 sequence (Q61235 1-520 partner): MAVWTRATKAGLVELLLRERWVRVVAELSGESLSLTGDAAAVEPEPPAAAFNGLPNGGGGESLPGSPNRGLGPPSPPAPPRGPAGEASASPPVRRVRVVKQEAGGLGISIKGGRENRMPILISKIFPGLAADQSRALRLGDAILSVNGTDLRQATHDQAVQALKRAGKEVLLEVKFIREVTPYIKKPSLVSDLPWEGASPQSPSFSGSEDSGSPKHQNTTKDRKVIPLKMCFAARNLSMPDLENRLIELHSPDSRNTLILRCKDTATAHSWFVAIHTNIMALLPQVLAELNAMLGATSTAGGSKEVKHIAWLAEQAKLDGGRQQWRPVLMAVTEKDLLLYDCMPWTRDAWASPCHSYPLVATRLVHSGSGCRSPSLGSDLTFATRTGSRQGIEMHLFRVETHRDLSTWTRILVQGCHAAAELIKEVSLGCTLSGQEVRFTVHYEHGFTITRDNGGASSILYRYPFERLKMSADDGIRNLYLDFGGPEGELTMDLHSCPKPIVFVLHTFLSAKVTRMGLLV
In words: [3H]-PI hydrolysis, HEK293 cells, agonist. It is filed as cell-based.

The target of assay [4] is T2, α1D-AR + α-syntrophin. Description: [3H]-prazosin competition, HEK293 membranes. It is filed as binding.
Assay [5] concerns the target T1, α1D-AR + β1-syntrophin. In words: [3H]-prazosin competition, HEK293 membranes. In kind it is binding.
The target in assay [6] is T3, α1D-AR + β2-syntrophin. Description: [3H]-prazosin competition, HEK293 membranes. It is filed as binding.
[7] abbreviates: 1 nM [3H]-prazosin, 30 min, 37 °C, value is -log10 of KI in M, single site.

As usually defined, the EC50 is the concentration giving half of the maximal effect. As for `CNCC(O)c1ccc(O)c(O)c1` (racemic) [(+/−) Epinephrine], the values for the 50% effective concentration (EC50) at α1D-AR + β1-syntrophin [1], at α1D-AR + α-syntrophin [2] and at α1D-AR + β2-syntrophin [3] were 13.8 nM, 15.8 nM and 35.5 nM, respectively.

For orientation: Ki means the equilibrium dissociation constant of an inhibitor or competing ligand from its target. Take `COc1ccccc1N1CCN(CCCNc2c(C)c(=O)n(C)c(=O)n2C)CC1` [5-MU]: the Ki was 27.5 nM on α1D-AR + α-syntrophin [4], 23.4 nM on α1D-AR + β1-syntrophin [5] and 36.3 nM on α1D-AR + β2-syntrophin [6].

As for `CNC[C@H](O)c1cccc(O)c1` [(−) Phenylephrine], the results for the 50% effective concentration (EC50) at α1D-AR + β1-syntrophin [1], on α1D-AR + α-syntrophin [2] and on α1D-AR + β2-syntrophin [3] were 155 nM, 67.6 nM and 126 nM, respectively.

`CCS(=O)(=O)Nc1cccc(C(=C2CCCCC2)c2cnc[nH]2)c1` [A-315456]: the “+α-syntrophin” value at α1D-AR + α-syntrophin [4] (setting [7]) stood at 7.25 ± 0.13 M. In addition, the “+β1-syntrophin” value on α1D-AR + β1-syntrophin [5] (setting [7]) amounted to 7.27 ± 0.08 M. The “+β2-syntrophin” value on α1D-AR + β2-syntrophin [6] (setting [7]) stood at 7.42 ± 0.21 M.

For the origin of these results see paper PMC4045409 (Biochemical and biophysical research communications, 2011).
